This passage reports IC50 results from patent US9642839B2, “Substance having tyrosine kinase inhibitory activity and preparation method and use thereof” (Institute of Radiation Medicine, China Academy of Military …, priority 2013, dated 2017).

The target of one experiment is TrkA (Homo sapiens, UniProt P04629). Briefly: Kinase Glo Plus kinase activity assay. It counts as biochemical. The protocol: (§1) 2) Activity of the rest 14 receptor tyrosine kinases was tested by using Kinase Glo Plus assay format, Progmag, and IC50 with regard to kinase activity was calculated based on the inhibition rate.
TrkA, sequence (P04629 33-796, species assumed): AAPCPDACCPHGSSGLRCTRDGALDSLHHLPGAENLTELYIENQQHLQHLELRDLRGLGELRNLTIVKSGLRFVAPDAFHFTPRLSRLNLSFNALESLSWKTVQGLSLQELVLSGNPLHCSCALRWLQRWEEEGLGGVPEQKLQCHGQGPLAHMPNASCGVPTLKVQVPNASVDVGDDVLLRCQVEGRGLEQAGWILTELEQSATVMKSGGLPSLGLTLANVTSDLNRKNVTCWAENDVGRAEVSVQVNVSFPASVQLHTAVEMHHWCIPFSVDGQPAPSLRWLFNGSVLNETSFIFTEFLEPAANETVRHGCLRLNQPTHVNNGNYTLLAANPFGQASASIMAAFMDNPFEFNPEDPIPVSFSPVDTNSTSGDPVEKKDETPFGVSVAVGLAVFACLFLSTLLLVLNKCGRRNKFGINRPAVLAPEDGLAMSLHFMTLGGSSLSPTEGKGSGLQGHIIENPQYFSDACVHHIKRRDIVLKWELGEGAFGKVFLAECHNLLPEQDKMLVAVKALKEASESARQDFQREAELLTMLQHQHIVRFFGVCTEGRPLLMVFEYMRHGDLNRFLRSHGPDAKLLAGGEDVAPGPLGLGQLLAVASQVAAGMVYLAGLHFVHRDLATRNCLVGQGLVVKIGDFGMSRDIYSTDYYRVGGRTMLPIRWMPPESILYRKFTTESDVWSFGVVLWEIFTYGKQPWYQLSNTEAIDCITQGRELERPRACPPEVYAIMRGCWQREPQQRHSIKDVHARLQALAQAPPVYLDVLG
Another experiment has as its target TrkB (Homo sapiens, UniProt Q16620). Briefly: Kinase Glo Plus kinase activity assay. It counts as biochemical. The protocol: as §1
In general terms: Kinase-Glo measures the ATP left after a reaction by luminescence.

For the next experiment, the target named is FGFR. Briefly: Kinase Glo Plus kinase activity assay. It counts as biochemical. The protocol:
as §1

The target of another experiment is PDGFR. Briefly: Kinase Glo Plus kinase activity assay. It counts as biochemical. How it is done: as §1
A further experiment deals with Ba/F3-Tpr-Met cells. As to the kind of experiment: In vitro antitumor activity, MTS cell proliferation. The conditions noted are these: pre-B cell, 72 hours. It counts as cell-based.
The test system of a further experiment is HLE cells. The description is as above. It counts as cell-based. As to conditions: Homo sapiens, hepatocellular cancer, 72 hours.
In another experiment the test system is MCF-7 cells. The description is as above. The format is cell-based. The conditions noted are these: Homo sapiens, MCF7, MCF-7, breast cancer, 72 hours.

As a reminder, the IC50 is the midpoint of a concentration-inhibition curve.

TrkB, sequence (Q16620 32-822, species assumed): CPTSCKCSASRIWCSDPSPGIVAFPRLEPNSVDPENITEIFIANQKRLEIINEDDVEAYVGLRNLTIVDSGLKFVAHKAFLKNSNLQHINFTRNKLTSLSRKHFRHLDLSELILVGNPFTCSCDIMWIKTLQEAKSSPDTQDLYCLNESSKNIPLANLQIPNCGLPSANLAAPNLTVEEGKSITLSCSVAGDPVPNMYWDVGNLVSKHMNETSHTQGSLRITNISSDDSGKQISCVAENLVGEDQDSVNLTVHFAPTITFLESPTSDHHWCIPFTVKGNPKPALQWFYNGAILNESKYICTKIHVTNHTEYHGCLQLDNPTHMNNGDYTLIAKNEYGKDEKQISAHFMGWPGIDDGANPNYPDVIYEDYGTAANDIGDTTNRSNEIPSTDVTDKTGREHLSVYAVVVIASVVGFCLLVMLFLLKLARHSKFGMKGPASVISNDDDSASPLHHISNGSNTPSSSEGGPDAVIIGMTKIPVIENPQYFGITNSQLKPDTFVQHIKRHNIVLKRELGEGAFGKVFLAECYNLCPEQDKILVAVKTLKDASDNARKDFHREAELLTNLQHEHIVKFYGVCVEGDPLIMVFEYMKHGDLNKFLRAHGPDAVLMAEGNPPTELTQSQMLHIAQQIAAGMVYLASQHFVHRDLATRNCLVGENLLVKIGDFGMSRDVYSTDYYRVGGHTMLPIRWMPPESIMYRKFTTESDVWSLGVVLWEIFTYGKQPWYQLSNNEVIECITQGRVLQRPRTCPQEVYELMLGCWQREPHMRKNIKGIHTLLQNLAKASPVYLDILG

As to `Cc1ccccc1NS(=O)(=O)c1ccc2c(c1)/C(=C/c1nc3ccccc3[nH]1)C(=O)N2` [Indo 5, 3-(1H-benzimidazol-2-methylene)-5-(2-methylphenylaminosulfo)-2-indolone], the IC50 on TrkA was 0.022 µM; at TrkB, 0.23 µM; at FGFR it was over 10 µM; on PDGFR, over 10 µM; in the experiment with Ba/F3-Tpr-Met cells, 4.79 µM; in the experiment with HLE cells, 5.23 µM. The IC50 in the experiment on MCF-7 cells amounted to 1.28 µM.
